Results: patent US20110105510A1, “PROPHYLACTIC/AMELIORATING OR THERAPEUTIC AGENT FOR NON-ALCOHOLIC STEATOHEPATITIS” (priority 2008, published 2011)

What was measured:
[1] = test system: high fat and high sucrose diet taking SD rats; experiment: Efficacy on high fat and high sucrose diet taking rats; type: in vivo, rat; conditions: HF diet SD rats, four weeks, oral once a day; EPA-E 1000 mg/kg or compound 2 1 mg/kg; compared with the control group
Experimental: Four-week-old male SD rats are fed at 23° C. on a 12:12 light/dark cycle, whereupon they are permitted to take either an ordinary diet (F-1; Funabashi Farm Co., Ltd.) or a high fat and high sucrose diet (TD88137 from Harlan […]; hereafter referred to as “HF diet”) freely for four weeks. The rats are divided into five groups (each comprising 10 animals), namely, normal group (ordinary diet-loaded), control group (HF diet-loaded), EPA-E group (HF diet-loaded, plus EPA-E-administered), compound 2 group (HF diet-loaded, plus compound 2-administered), and combined application group (HF diet-loaded, plus EPA-E-administered, plus compound 2-administered). During the feeding, 1000 mg/kg of EPA-E is administered to the EPA-E group, 1 mg/kg of compound 2 to the compound 2 group, as well as 1000 mg/kg of EPA-E and 1 mg/kg of compound 2 are administered to the combined application group, with each administration being orally carried out once a day by suspending the relevant drug or drugs in a 5% aqueous solution of gum arabic. To the normal group and the control group, a 5% aqueous solution of gum arabic is orally administered once a day. After the feeding for four weeks, blood samples are collected to measure the neutrophil count and conduct biochemical assays of the plasma.

[2] = test system: diabetic mice (db/db) loaded with a methionine-choline-deficient diet; experiment: Efficacy on methionine-choline-deficient diet diabetic mice; type: in vivo, mouse; conditions: MCD diet db/db mice, two weeks, oral once a day; EPA-E 1000 mg/kg or compound 1 1 mg/kg; compared with the control group
Experimental: Pharmacological actions of EPA-E and/or compound 1 on hepatic disorders and fibrosis are confirmed by using diabetic mice loaded with a methionine-choline-deficient diet (hereafter referred to as “MCD diet”), which are known for their development of NASH-like hepatic lesions. Seven-week-old male db/db mice (Charles River Japan, Inc.) are fed at 23° C. on a 12:12 light/dark cycle, whereupon they are permitted to take either an ordinary diet (F-1; Funabashi Farm Co., Ltd.) or a MCD diet (Dyets, Inc.) freely for two weeks. The mice are divided into five groups (each comprising 20 animals), namely, normal group (ordinary diet-loaded), control group (MCD diet-loaded), EPA-E group (MCD diet-loaded, plus EPA-E-administered), compound 1 group (MCD diet-loaded, plus compound 1-administered), and combined application group (MCD diet-loaded, plus EPA-E-administered, plus compound 1-administered). During the feeding, 1000 mg/kg of EPA-E is administered to the EPA-E group, 1 mg/kg of compound 1 to the compound 1 group, as well as 1000 mg/kg of EPA-E and 1 mg/kg of compound 1 are administered to the combined application group, with each administration being orally carried out once a day by suspending the relevant drug or drugs in a 5% aqueous solution of gum arabic. To the normal group and the control group, a 5% aqueous solution of gum arabic is orally administered once a day. […]

NASH = conditions: EPA-E of high purity, 2700 mg/day for 12 months; cited from earlier work

SMILES	increases of the neutrophil count, TNFα, IL-6, high sensitivity CRP, ferritin, thioredoxin and type IV collagen [1]	increases of the plasma AST and ALT levels [1]	increases of the plasma AST and ALT levels [2]	increases of the type IV collagen, hyaluronic acid and TIMP-1 levels [2]	NASH (AST or ALT, inflammatory cytokines or oxidative stress markers, hepatobiopsy) (NASH)
CC/C=C\C/C=C\C/C=C\C/C=C\C/C=C\CCCC(=O)OCC [EPA-E, EPA ethyl]	suppressed	suppressed	suppressed	suppressed	amelioration of NASH
CCn1ncc2c(-c3cncc(Br)c3)c(C#N)c(C)nc21 [compound 2, 4-(5-bromo-3-pyridyl)-1-ethyl-6-methyl-1H-pyrazolo[3,4-b]pyridine-5-carbonitrile]	suppressed	suppressed	–	–	–
